Values after ≈ are worked out from the molar mass of the structure shown.
What was measured:
[1] = Stability in artificial gastric juice environment (HPLC); conditions: 37° C.
Method: The samples were dissolved in 500 μL of chromatographic methanol, into which were added 1500 μL of artificial gastric juice, mixed well and then dissolved completely by ultrasound. 50 μL of the above solutions were aspirated precisely, diluted by adding 200 μL of chromatographic methanol, filtered and analyzed by HPLC, wherein the HPLC analysis conditions were mobile phase: 65% methanol -35% water, flow rate: 0.8 mL/min, and column temperature: 25° C., and the initial peak areas were recorded. The above solutions were placed on a constant temperature water bath at 37° C., sampled at 8 h, 16 h and 24 h respectively, and analyzed by HPLC. By calculating the peak areas respectively, the stability data of the corresponding samples in artificial gastric juice environment at 8 h, 16 h and 24 h can be obtained.

Solubility test in water = format: physicochemical; conditions: thermodynamic from solid; deionized water, 37° C.
Method: Saturated solutions were formulated, filtered and analyzed by HPLC with a sample volume of 1 μL, 3 μL, 5 μL, 10 μL, 15 µL and 20 μL sequentially, and the standard curves of the corresponding compounds were drawn.
[…] of the above compounds were formulated, dissolved by ultrasound for 4 h, and placed on a water bath at 37° C. to stand for 1 h. The resulting unsaturated solutions were centrifuged. 30 μL of supernatants were removed, diluted by adding 200 μL of deionized water, and then filtered.

CT26 cells = assay: CT26 subcutaneous mouse xenograft model; format: in vivo, C57BL/6 mice; conditions: 3 weeks
Method: CT26 cells were cultured and amplified in vitro. Appropriate amount of the cells in logarithmic growth phase were resuspended in a suspension of a serum-free RPMI 1640 medium and Matrigel (1:1) to prepare a cell suspension in 5×10^5/100 μL under sterile conditions. 100 μL of the cell suspension was subcutaneously inoculated into the armpits of the front left limbs of male C57BL/6 mice with a syringe. When the tumor volume grew to 50-70 mm^3, animals with moderate tumor size were randomly divided into groups, with 5 animals in each group. […] The mice were administered intragastrically every day for 3 weeks. During the administration, the weights and tumor diameters of the mice were measured every day. After the experiment, the mice were sacrificed by cervical dislocation, and the tumors were taken and weighed. The formula for calculating a tumor volume (TV) is: TV=½×a×b2, where a represents the long diameter of a tumor; b represents the short diameter of a tumor.

MDSCs and T cells = assay: H22 xenograft model, flow cytometry of MDSCs and T cells in tumor and spleen; format: in vivo, BALB/c mice
Method: (§1) H22 cells were cultured and amplified in vitro. Appropriate amount of the cells in logarithmic growth phase were resuspended in a suspension of a serum-free RPMI 1640 medium and Matrigel (1:1) to prepare a cell suspension in 3×105/100 μL under sterile conditions. 100 μL of the cell suspension was subcutaneously inoculated into the armpits of the front left limbs of BALB/c mice with a syringe. When the tumor volume grew to 100-200 mm^3, animals with moderate tumor size were randomly divided into groups, with 6 animals in each group. […] The mice were administered intragastrically every day for 2 weeks. During the administration, the weights and tumor diameters of the mice were measured every day. After the experiment, the mice were sacrificed by cervical dislocation, and the tumors were taken and weighed. The formula for calculating a tumor volume (TV) is: TV=½×a×b^2, where a represents the long diameter of a tumor; b represents the short diameter of a tumor.
The tumor-bearing mice were sacrificed by the cervical dislocation method, placed in a beaker containing 75% alcohol, and the tumors of the mice were peeled off. The tumors were first soaked in a sterile petri dish containing RPMI 1640. After all the tumors were peeled off, fingernail sized tumor was cut off and transferred to a 1.5 mL EP tube. The tumors were cut into small pieces, and transferred into a 15 mL centrifuge tube containing 3-5 mL of digestive enzymes (Collagenase IV 1 mg/mL, Hyaluronidase 1 mg/mL, and DNase I 20 U/mL), and digested in a shaker at 200 rpm and 37° C. for 1 h. After digestion, the mixture was allowed to pass through a 200-mesh screen to obtain the suspension of the tumor cells. The resulting tumor suspension was centrifuged at 1600 rpm for 5 min. The supernatant was aspirated away. 1 mL of 1×PBS was added into each tube to resuspend the cells. The cell suspension was transferred into a 1.5 mL EP tube, and centrifuged at 1600 rpm for 5 min. The supernatant was removed. 100 μL of 1×PBS was used in each tube to resuspend the cells respectively. Then 1 μL of a viability dye was added. The mixture was incubated at room temperature in the dark for 15 min after being mixed well. At the same time, the spleen was taken out with a tweezer, placed into a sterile petri dish containing 5 mL of the RPMI 1640 medium, and positioned on a 200-mesh cell screen. The spleen was gently ground with the needle core of a 10 mL syringe. A small amount of the RPMI 1640 medium was aspirated to rinse the cell screen. The spleen cell suspension was rinsed into a 15 mL centrifuge tube, and centrifuged at 1600 rpm for 5 min to collect cells. The cells were washed once with 1×PBS. 3 mL of an erythrocyte lysate (diluted with ddH2O) was added to each tube to lyse for 5 min. After lysing, 10 mL of 1×PBS was added to each tube to stop lysing. The mixture was centrifuged at 1600 rpm for 5 min. 1 mL of 1×PBS was added to each 15 mL centrifuge tube. The mixture was transferred to a 1.5 mL EP tube, and centrifuged at 1600 rpm for 5 min. 1 mL of 1×PBS was added to each tube of the stained tumor cells and lysed spleen cells respectively to wash once. The mixture was centrifuged at 1600 rpm for 5 min, and the supernatant was removed. 100 μL of 1×PBS was used to resuspend the tumor cells and spleen cells respectively. 1 μL of the FcX™ antibody was then added to each tube. The mixture was incubated at room temperature in the dark for 10 min. After the incubation, 1 μL of each of the CD45, CD11b and Gr1 antibodies was added to each tube sequentially. The mixture was incubated at 4° C. in the dark for 30 min, and washed once with 1×PBS after the incubation. The supernatant was discarded. 300 μL of 1×PBS was used to resuspend the cells. The mixture was filtered through a filter membrane into a flow tube, and detected on a machine.

H22 cells = assay: H22 subcutaneous mouse xenograft model, tumor growth; format: in vivo, BALB/c mice; conditions: 2 weeks
Method: as §1

| SMILES | Non-degradation percentage at 8 h [1] [%] | Non-degradation percentage at 16 h [1] [%] | Non-degradation percentage at 24 h [1] [%] | solubility (Solubility test in water) [µg/mL] | Tumor growth inhibition (CT26 cells; 16.86 mg/kg/d i.g.) [%] | Tumor weight (CT26 cells; 16.86 mg/kg/d i.g.) [g] | MDSCs in Spleen (MDSCs and T cells; 8.43 mg/kg/d) [%] | MDSCs in tumor (MDSCs and T cells; 8.43 mg/kg/d) [%] | T Cells in Spleen (MDSCs and T cells; 8.43 mg/kg/d) [%] | T Cells in tumor (MDSCs and T cells; 8.43 mg/kg/d) [%] | Tumor growth inhibition (H22 cells; 8.43 mg/kg/d i.g.) [%] | Tumor weight (H22 cells; 8.43 mg/kg/d i.g.) [g] | Tumor growth inhibition (CT26 cells; 20 mg/kg/d i.g.) [%] | Tumor weight (CT26 cells; 20 mg/kg/d i.g.) [g] | MDSCs in Spleen (MDSCs and T cells; 10 mg/kg/d) [%] | MDSCs in tumor (MDSCs and T cells; 10 mg/kg/d) [%] | T Cells in Spleen (MDSCs and T cells; 10 mg/kg/d) [%] | T Cells in tumor (MDSCs and T cells; 10 mg/kg/d) [%] | Tumor growth inhibition (H22 cells; 10 mg/kg/d i.g.) [%] | Tumor weight (H22 cells; 10 mg/kg/d i.g.) [g] |
| --- | --- | --- | --- | --- | --- | --- | --- | --- | --- | --- | --- | --- | --- | --- | --- | --- | --- | --- | --- | --- |
| C=C1C(=O)O[C@@H]2[C@@H]3[C@]4(CC[C@@]3(C)O)C[C@]4(C)CC[C@@H]12 [Compound 1] | 99.08 | 98.76 | 98.16 | 1140 (≈ 4.35 mM) |  |  |  |  |  |  |  |  |  |  |  |  |  |  |  |  |
| CN(C)C[C@@H]1C(=O)O[C@H]2[C@H]1CC[C@@]1(C)C[C@]13CC[C@@](C)(O)[C@H]23 [Compound 23] |  |  |  |  | 43.36 | 4.62 | 23.10 | 7.86 | 37.19 | 29.44 | 42.92 | 4.88 |  |  |  |  |  |  |  |  |
| C=C1C(=O)O[C@@H]2[C@H]3C(C)=CC[C@@]34O[C@@]4(C)CC[C@@H]12 [arglabin, reference compound] | 50.14 | 48.70 | 43.40 |  |  |  |  |  |  |  |  |  | 34.94 | 5.31 | 27.89 | 27.0 | 27.02 | 17.72 | 39.43 | 5.18 |

Source: patent publication US20240124409A1, “GUAIANOLIDE SESQUITERPENE LACTONE DERIVATIVES AND PHARMACEUTICAL USE THEREOF” (NANJING UNIVERSITY OF CHINESE MEDICINE, priority 2021, published 2024)
